From patent US8822700B2, “Hepatitis C virus inhibitors” (Enanta Pharmaceuticals, Inc., priority 2009, dated 2014) come the findings set out here.

The subject of the experiment is HCV 1b genotype replicon. In words: HCV replicon assay (qRT-PCR or luciferase), genotype 1b. The format is cell-based. As to conditions: Hepatitis C virus; HCV 1b replicon cell lines (SGR 11-7 or Huh-luc/neo-ET); qRT-PCR or luciferase readout; two labels in one cell = mixture of the two compounds tested; read-out: Genotype-1b replicon EC50 Range. The text has this:
HCV replicon cell lines (kindly provided by R. Bartenschlager) isolated from colonies as described by Lohman et. al. (Lohman et al. (1999) Science 285: 110-113, expressly incorporated by reference in its entirety) and used for all experiments. The HCV replicon has the nucleic acid sequence set forth in EMBL Accession No.: AJ242651, the coding sequence of which is from nucleotides 1801 to 8406.
The coding sequence of the published HCV replicon was synthesized and subsequently assembled in a modified plasmid pBR322 (Promega, Madison, Wis.) using standard molecular biology techniques. One replicon cell line (“SGR 11-7”) stably expresses HCV replicon RNA which consists of (i) the HCV 5′UTR fused to the first 12 amino acids of the capsid protein, (ii) the neomycin phosphotransferase gene (neo), (iii) the IRES from encephalomyocarditis virus (EMCV), and (iv) HCV NS2 to NS5B genes and the HCV 3′UTR. Another replicon cell line (“Huh-luc/neo-ET”) described by Vrolijk et. al. (Vrolijk et. al. (2003) Journal of Virological Methods 110:201-209, expressly incorporated by reference in its entirety) stably expresses HCV replicon RNA which consists of (i) the HCV 5′UTR fused to the first 12 amino acids of the capsid protein, (ii) the firefly luciferase reporter gene, (iii) the ubiquitin gene, (iv) the neomycin phosphotransferase gene (neo), (v) the IRES from encephalomyocarditis virus (EMCV), and (vi) HCV NS3 to NS5B genes that harbor cell culture adaptive mutations (E1202G, T1280I, K1846T) and the HCV 3′UTR.
These cell lines were maintained at 37° C., 5% CO2, 100% relative humidity in DMEM (Cat#11965-084, Invitrogen), with 10% fetal calf serum (“FCS”, Invitrogen), 1% non-essential amino acids (Invitrogen), 1% of Glutamax (Invitrogen), 1% of 100× penicillin/streptomycin (Cat#15140-122, Invitrogen) and Geneticin (Cat#10131-027, Invitrogen) at 0.75 mg/ml or 0.5 mg/ml for 11-7 and Huh-luc/neo-ET cells, respectively.
EC50 values of single agent compounds and combinations were determined by HCV RNA detection using quantitative RT-PCR, according to the manufacturer's instructions, with a TAQMAN® One-Step RT-PCR Master Mix Reagents Kit (Cat# AB 4309169, Applied Biosystems) on an ABI Model 7500 thermocycler. The TaqMan primers used for detecting and quantifying HCV RNA were obtained from Integrated DNA Technologies. HCV RNA was normalized to GAPDH RNA levels in drug-treated cells, which was detected and quantified using the Human GAPDH Endogenous Control Mix (Applied Biosystems, AB 4310884E). Total cellular RNA was purified from 96-well plates using the RNAqueous 96 kit (Ambion, Cat# AM1812). Chemical agent cytotoxicity was evaluated using an MTS assay according to the manufacturer's directions (Promega).
Since clinical drug resistance often develops in viral infections following single agent therapies, there is a need to assess the additive, antagonistic, or synergistic properties of combination therapies. We use the HCV replicon system to assess the potential use of the compound of the present invention or in combination therapies with Interferon alpha, cyclosporine analogs and inhibitors targeting other HCV proteins. The acute effects of a single or combinations of drugs are studied in the “Huh-luc/neo-ET” replicon with each chemical agent titrated in an X or Y direction in a 6 point two-fold dilution curve centered around the EC50 of each drug. Briefly, replicon cells are seeded at 7,000 cells per well in 90 ul DMEM (without phenol red, Invitrogen Cat.#31053-036) per well with 10% FCS, 1% non-essential amino acids, 1% of Glutamax and 1% of 100× penicillin/streptomycin and incubated overnight at 37° C., 5% CO2, 100% relative humidity. […]
Turning to `COC(=O)N[C@H](C(=O)N[C@H]1CCC[C@@H]1C(=O)Nc1ccc(-c2ccc(-c3c[nH]c([C@@H]4CCCN4C(=O)[C@@H](NC(=O)OC)C(C)C)n3)cc2)cc1)C(C)C` (racemic) [349a and 349b], the 50% effective concentration (EC50) (usually the concentration that produces a half-maximal response) lay within 1 to 10 nM. In the case of `COC(=O)N[C@H](C(=O)N[C@@H]1CCC[C@H]1NC(=O)c1ccc(-c2ccc(-c3c[nH]c(C4CCCN4C(=O)[C@@H](NC(=O)OC)C(C)C)n3)cc2)cc1)C(C)C` (mixture of isomers) [367a and 367b] it was below 1 nM. The result for `COC(=O)N[C@H](C(=O)N[C@@H]1CCC[C@H]1NC(=O)c1ccc(-c2ccc(-c3ccc4[nH]c([C@@H]5CCCN5C(=O)[C@@H](NC(=O)OC)C(C)C)nc4c3)cc2)cc1)C(C)C` (racemic) [371a and 371b] reads below 1 nM; that for `COC(=O)N[C@H](C(=O)O[C@@H]1CCC[C@H]1NC(=O)c1ccc(-c2ccc(-c3c[nH]c([C@@H]4CCCN4C(=O)[C@@H](NC(=O)OC)C(C)C)n3)cc2)cc1)C(C)C` (racemic) [377a and 377b], below 1 nM.

For the molecule `COC(=O)N[C@H](C(=O)N1CCC[C@@H](C(=O)Nc2ccc(-c3ccc(-c4cnc([C@@H]5CCCN5C(=O)[C@@H](NC(=O)OC)C(C)C)[nH]4)cc3)cc2)C1)C(C)C` (racemic) [382a and 382b], the 50% effective concentration (EC50) was below 1 nM. The result for `COC(=O)N[C@H](C(=O)N1CC[C@H](C(=O)Nc2ccc(-c3ccc(-c4cnc([C@@H]5CCCN5C(=O)[C@@H](NC(=O)OC)C(C)C)[nH]4)cc3)cc2)C1)C(C)C` [Example 83] reads 1 to 10 nM. `COC(=O)N[C@H](C(=O)N1CCC[C@H]1CNC(=O)c1ccc(-c2ccc(-c3cnc([C@@H]4CCCN4C(=O)[C@@H](NC(=O)OC)C(C)C)[nH]3)cc2)cc1)C(C)C` [Example 257]: the EC50 is below 1 nM. In the case of `COC(=O)N[C@H](C(=O)N1CC[C@H](C(=O)Nc2ccc3cc(-c4ccc5[nH]c([C@@H]6CCCN6C(=O)[C@@H](NC(=O)OC)C(C)C)nc5c4)ccc3c2)C1)C(C)C` [Example 327] it was above 10 nM; in that of `COC(=O)N[C@H](C(=O)N1CC[C@@H](NC(=O)c2ccc(-c3ccc(-c4c[nH]c([C@@H]5CCCN5C(=O)[C@@H](NC(=O)OC)C(C)C)n4)cc3)cc2)C1)C(C)C` [Example 352], 1 to 10 nM; in that of `COC(=O)N[C@H](C(=O)N1CCC(C(=O)Nc2ccc(-c3ccc(-c4c[nH]c([C@@H]5CCCN5C(=O)[C@@H](NC(=O)OC)C(C)C)n4)cc3)cc2)C1)C(C)C` (stereo partly shown) [Example 355], 1 to 10 nM.

In the case of `COC(=O)N[C@H](C(=O)N1CCC[C@H]1CNC(=O)c1cccc(-c2ccc3cc(-c4c[nH]c([C@@H]5CCCN5C(=O)[C@@H](NC(=O)OC)C(C)C)n4)ccc3c2)c1)C(C)C` [Example 361], the 50% effective concentration (EC50) lay within 1 to 10 nM.

As for `COC(=O)N[C@H](C(=O)N1CCC(C(=O)Nc2ccc(-c3ccc4[nH]c([C@@H]5CCCN5C(=O)[C@@H](NC(=O)OC)C(C)C)nc4c3)cc2)C1)C(C)C` (stereo partly shown) [Example 363], the EC50 is above 10 nM. `COC(=O)N[C@H](C(=O)N1CC[C@H](C(=O)Nc2ccc3cc(-c4ccc(-c5c[nH]c([C@@H]6CCCN6C(=O)[C@@H](NC(=O)OC)C(C)C)n5)cc4)ccc3c2)C1)C(C)C` [Example 365]: the concentration for a half-maximal effect (EC50) fell in the range of 1 to 10 nM. The result for `COC(=O)N[C@H](C(=O)N[C@@H]1CCC[C@H]1NC(=O)c1ccc(-c2ccc(-c3c[nH]c([C@@H]4CCCN4C(=O)[C@@H](NC(=O)OC)C(C)C)n3)cc2)cc1)C(C)C` [Example 369] reads above 10 nM; that for `COC(=O)N[C@H](C(=O)N1CC[C@H](NC(=O)c2ccc(-c3ccc(-c4c[nH]c([C@@H]5CCCN5C(=O)[C@@H](NC(=O)OC)C(C)C)n4)cc3)cc2)C1)C(C)C` [Example 372], 1 to 10 nM; that for `COC(=O)N[C@H](C(=O)N1CC[C@@H](C(=O)Nc2ccc(-c3ccc(-c4c[nH]c([C@@H]5CCCN5C(=O)[C@@H](NC(=O)OC)C(C)C)n4)cc3)cc2)C1)C(C)C` [Example 374], below 1 nM.

As for `COC(=O)N[C@H](C(=O)N1CC[C@H](C(=O)Nc2ccc(-c3ccc(-c4c[nH]c([C@@H]5CCCN5C(=O)[C@@H](NC(=O)OC)C(C)C)n4)cc3)cn2)C1)C(C)C` [Example 379], the half-maximal effective concentration (EC50) is below 1 nM. The result for `COC(=O)N[C@H](C(=O)N1CCC[C@@H]1CNC(=O)c1ccc(-c2ccc(-c3cnc([C@@H]4CCCN4C(=O)[C@@H](NC(=O)OC)C(C)C)[nH]3)cc2)cc1)C(C)C` [Example 380] reads 1 to 10 nM; that for `COC(=O)N[C@H](C(=O)NC[C@H]1CCCN1C(=O)c1ccc(-c2ccc(-c3cnc([C@@H]4CCCN4C(=O)[C@@H](NC(=O)OC)C(C)C)[nH]3)cc2)cc1)C(C)C` [Example 381], above 10 nM.
